Measurements: patent publication US7825110B2, “Substituted spiroheterocycles” (Janssen Pharmaceutica NV, priority 2006, dated 2010)

Legend:
[1] = target: T1, human V1a receptor (Homo sapiens, UniProt P37288); assay: In-vitro binding assay, 3H-arginine-8-vasopressin, V1a; settings: for inhibition at 0.2 µM: 0.2 μM test compound, read-out: V1a (binding), Percent inhibition at 0.2 μM; for IC50: membrane containing human V1a receptor, displacement of H3 vasopressin
Protocol: (§1) Assay buffer is 50 mM Tris-Cl, 5 mM MgCl2, 0.1% BSA (pH 7.5) containing 5 μg/ml of aprotinin, leupeptin, pepstatin, 50 μg/ml bacitracin, and 1 mM Pefabloc (4-(2-Aminoethyl)-benzenesulfonyl fluoride, hydrochloride manufactured by Roche Diagnostics Corporation, Indianapolis, Ind. and distributed by Boehringer Mannheim). H3 vasopressin is ^3H-arginine-8-vasopressin (NEN Life Sciences, Boston, Mass.; 68.5 Ci/mmol, final concentration in assay is 0.65-0.75 nM). Into wells of 96-well round bottom polypropylene plates are added buffer, test compound, membrane (containing human V1a or V2 receptor), and H3 vasopressin. The reaction plates are allowed to sit at room temperature for one hour. The samples are filtered through Unifilter GF/C plates (PerkinElmer Life Sciences, Boston, Mass.) presoaked in […]. The plates are washed 5 times with cold physiological saline containing 0.05% Tween 20. After drying, the bottom of the filter plates
(§2) [formula] are sealed and 0.025 ml of Microscint-20 (Packard Instrument Co, Meriden, Conn.) is added to each filter. The top of the plate is sealed, and the plate is counted. Non-specific binding is determined by the addition of 1.25 μM arginine-8-vasopressin in those wells. % Inh. is calculated as follows: […]

[2] = target: T2, human V2 receptor (Homo sapiens, UniProt P30518); assay: In-vitro binding assay, 3H-arginine-8-vasopressin, V2; settings: for inhibition at 0.2 µM: 0.2 μM test compound, read-out: V2 (binding), Percent inhibition at 0.2 μM; for IC50: membrane containing human V2 receptor, displacement of H3 vasopressin
T2 sequence (P30518 whole entry): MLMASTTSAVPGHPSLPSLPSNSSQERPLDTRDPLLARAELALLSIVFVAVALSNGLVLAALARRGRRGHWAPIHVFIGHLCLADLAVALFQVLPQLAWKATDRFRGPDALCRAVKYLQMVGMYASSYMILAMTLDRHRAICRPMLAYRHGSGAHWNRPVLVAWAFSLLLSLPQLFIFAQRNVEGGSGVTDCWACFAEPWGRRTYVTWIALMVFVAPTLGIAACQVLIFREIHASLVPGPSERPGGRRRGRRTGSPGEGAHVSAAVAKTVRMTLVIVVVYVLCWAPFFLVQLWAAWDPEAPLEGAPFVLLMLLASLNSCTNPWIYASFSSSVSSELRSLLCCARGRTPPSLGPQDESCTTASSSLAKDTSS
Protocol: as §1, §2

[3] = target: T1, human V1a receptor; assay: V1a vasopressin receptor functional activity (intracellular calcium mobilization, FLIPR, V1a-HEK cells); format: cell-based; settings: antagonism of vasopressin-induced calcium mobilization in V1a-HEK cells
Protocol: The V1a receptor is a G-protein coupled receptor, which upon activation triggers an increase in intracellular calcium mobilization. To evaluate compounds for their functional V1a receptor activity, HEK-293 cells were transfected with the human V1a receptor (V1a-HEK cells). HEK-293 cells were grown in DMEM (Dulbecco's modified Eagle Media) supplemented with 10% FBS and glutamine. HEK-cells were passed biweekly by trypsinization and seeded into 96 well plates at 33,000 cells per well. HEK-293 cells were transfected with human V1a receptor DNA using DMRIE-C reagent from Life Technologies (Carlsbad, Calif.). Stable lines were generated by selecting cells grown in culture media containing geneticin. After growing in Packard Clear-View black 96 well plates for 4-6 days, V1a-HEK cells were loaded with the calcium-sensitive fluorescence dye, FLUO-3 AM. Changes in intracellular calcium mobilization were measured by quantitating intracellular fluorescence using FLIPR (Fluorometric Imaging Plate Reader; Molecular Devices, Sunnyvale, Calif.). Test compounds were first added to the cells and the resulting changes in fluorescence measured to detect receptor agonistic activity. Five minutes later the cells were challenged with vasopressin to test compounds for their antagonistic activity. Receptor antagonists inhibit the ability of vasopressin to stimulate increases in intracellular fluorescence. IC50's were calculated.

[4] = target: T2, human V2 receptor; assay: V2 vasopressin receptor functional activity (cAMP accumulation, V2-HEK cells); format: cell-based; parameters: expressed in transfected cells; host or cells: HEK-293; settings: block of vasopressin-stimulated cAMP accumulation in V2-HEK cells
Protocol: The V2 receptor is also a G-protein coupled receptor which when activated induces an increase in cAMP turnover. Antagonism against the V2 receptor is determined by measuring cAMP accumulation in transfected HEK-293 cells expressing the human V-2 receptor (V2-HEK cells). Compounds are tested for their ability to block the stimulatory effects of vasopressin on cAMP accumulation. The cell content of cAMP is measured by radioimmunoassay using NEN flashplates.

T1 sequence (P37288 whole entry): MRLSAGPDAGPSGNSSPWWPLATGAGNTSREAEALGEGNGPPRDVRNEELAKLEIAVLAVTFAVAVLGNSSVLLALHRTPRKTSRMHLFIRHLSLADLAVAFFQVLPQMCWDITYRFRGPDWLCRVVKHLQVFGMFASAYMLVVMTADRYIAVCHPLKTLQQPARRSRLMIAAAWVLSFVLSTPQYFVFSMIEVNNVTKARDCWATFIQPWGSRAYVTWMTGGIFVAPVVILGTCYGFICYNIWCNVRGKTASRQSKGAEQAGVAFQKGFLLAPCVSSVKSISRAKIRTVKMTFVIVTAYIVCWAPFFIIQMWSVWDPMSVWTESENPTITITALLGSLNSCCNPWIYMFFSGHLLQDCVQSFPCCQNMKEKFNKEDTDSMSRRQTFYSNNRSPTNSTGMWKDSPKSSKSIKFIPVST

Structure (SMILES) | inhibition at 0.2 µM [1] [%] | inhibition at 0.2 µM [2] [%] | IC50 [3] [µM] | IC50 [2] [µM] | IC50 [4] [µM] | IC50 [1] [µM]
O=C(Nc1ccc(C(=O)N2CCC3(CCN(C4CCCC4)C3)Cc3ccccc32)cc1)c1ccccc1-c1ccccc1 (centres unmarked) [Compound 18] | 66 | 70 | – | – | – | –
COC(=O)CN1CCC2(CCN(C(=O)c3ccc(NC(=O)c4ccccc4-c4ccccc4)cc3)c3ccccc3C2)C1 (centres unmarked) [Compound 22, [1,1′-Biphenyl]-2-carboxamide, N-[4-[(2,3-dihydro-1′-acetic acid-spiro{4H-1-benzazepine-4,3′-pyrrolidin}-1(5H)-yl)carbonyl]phenyl}-, methyl ester] | 66 | – | 0.4 | 0.11 | 0.049 | –
CN1CCCC2(CCN(C(=O)c3ccc(NC(=O)c4cc(F)ccc4Cl)cc3)c3ccccc3C2)C1 (centres unmarked) [Compound 8, Benzamide, 2-chloro-N-[4-{(2,3-dihydro-1′-methyl-spiro[4H-1-benzazepine-4,3-piperidin}-1(5H)-yl)carbonyl}phenyl]-5-fluoro] | – | 52 | 0.01 | – | 0.46 | 0.012
CCOC(=O)CN1CCC2(CCN(C(=O)c3ccc(NC(=O)c4ccccc4-c4ccccc4)cc3)c3ccccc3C2)C1 (centres unmarked) [Compound 23, [1,1′-Biphenyl]-2-carboxamide, N-[4-[(2,3-dihydro-1′-acetic acid-spiro{4H-1-benzazepine-4,3′-pyrrolidin}-1(5H)-yl)carbonyl]phenyl}-, ethyl ester] | 75 | 58 | 0.78 | – | 0.673 | –

Continued, values first:

inhibition at 0.2 µM [1] [%] | inhibition at 0.2 µM [2] [%] | IC50 [3] [µM] | IC50 [2] [µM] | IC50 [4] [µM] | IC50 [1] [µM] | Structure (SMILES)
61 | 78 | 0.21 | – | 0.182 | – | CC(=O)N1CCC2(CCN(C(=O)c3ccc(NC(=O)c4ccccc4-c4ccccc4)cc3)c3ccccc3C2)C1 (centres unmarked) [Compound 27, [1,1′-Biphenyl]-2-carboxamide, N-[4-[(2,3-dihydro-1′-acetyl-spiro{4H-1-benzazepine-4,3′-pyrrolidin}-1(5H)-yl)carbonyl]phenyl}-]
– | – | 0.08 | 0.029 | 0.064 | 0.015 | CN1CCCC2(CCN(C(=O)c3ccc(NC(=O)c4ccccc4-c4ccccc4)cc3)c3ccccc3C2)C1 (centres unmarked) [Compound 10, [1,1′-Biphenyl]-2-carboxamide, N-[4-[(2,3-dihydro-1′-methyl-spiro{4H-1-benzazepine-4,3′-piperidin}-1(5H)-yl)carbonyl]phenyl}-]
23 | 83 | – | – | 0.272 | – | O=C(O)CC(=O)N1CCC2(CCN(C(=O)c3ccc(NC(=O)c4ccccc4-c4ccccc4)cc3)c3ccccc3C2)C1 (centres unmarked) [Compound 26]
35 | 77 | – | – | 0.306 | – | CCOC(=O)CC(=O)N1CCC2(CCN(C(=O)c3ccc(NC(=O)c4ccccc4-c4ccccc4)cc3)c3ccccc3C2)C1 (centres unmarked) [Compound 25, [1,1′-Biphenyl]-2-carboxamide, N-[4-[(2,3-dihydro-1′-pyruvic acid-spiro{4H-1-benzazepine-4,3′-pyrrolidin}-1(5H)-yl)carbonyl]phenyl}-, ethyl ester]
– | – | – | – | – | 0.26 | CN(C)CC(=O)N1CCC2(CCN(C(=O)c3ccc(NC(=O)c4ccccc4-c4ccccc4)cc3)c3ccccc3C2)C1 (centres unmarked) [Compound 28, [1,1′-Biphenyl]-2-carboxamide, N-[4-[(2,3-dihydro-(1′-(2-(dimethylamino)acetyl))spiro{4H-1-benzazepine-4,3′-pyrrolidin}-1(5H)-yl)carbonyl]phenyl]-;]
